Measurements taken from the supplement of paper PMC10307832.

What was measured:
Assay in all cases: relative viability (nuclei count vs DMSO), 5 days (fraction); higher = more cells survive
[1] = system: LU99A
Procedure, shortened: (§1)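 Lung cancer cell lines were seeded in 1536-well plates and dosed by pin tool the next day, with either a single drug or a fixed anchor-drug dose combined with five library-drug doses (not always all listed) spaced in √10 steps. Five days later, one step fixed the cells and stained their nuclei (final 0.05% Triton X-100, 1% formaldehyde, 1 ug/ml Hoechst), and nuclei were counted on 4× images. Relative viability is the nuclei count in treated wells divided by the count in vehicle wells, and each value is the median of duplicate plates.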

[2] = system: NCI-H1563
Procedure, shortened: as §1

[3] = system: NCI-H1395
Procedure, shortened: as §1

[4] = system: HCC-15
Procedure, shortened: as §1

[5] = system: NCI-H358
Procedure, shortened: as §1

[6] = system: LC-2-ad
Procedure, shortened: as §1

[7] = system: NCI-H1915
Procedure, shortened: as §1

[8] = system: BEN
Procedure, shortened: as §1

[9] = system: NCI-H1755
Procedure, shortened: as §1

[10] = system: HOP-62
Procedure, shortened: as §1

[11] = system: SW 1573
Procedure, shortened: as §1

[12] = system: HCC-44
Procedure, shortened: as §1

[13] = system: NCI-H3122
Procedure, shortened: as §1

[14] = system: NCI-H1734
Procedure, shortened: as §1

[15] = system: NCI-H2126
Procedure, shortened: as §1

[16] = system: NCI-H1437
Procedure, shortened: as §1

[17] = system: EMC-BAC-2
Procedure, shortened: as §1

[18] = system: NCI-H650
Procedure, shortened: as §1

[19] = system: NCI-H727
Procedure, shortened: as §1

[20] = system: NCI-H2023
Procedure, shortened: as §1

With `CN1CCN(CCOc2cc(OC3CCOCC3)c3c(Nc4c(Cl)ccc5c4OCO5)ncnc3c2)CC1` [Saracatinib] + C[C@]1(O)C[C@@H](c2nc(-c3ccc4ccc(-c5ccccc5)nc4c3)c3c(N)nccn32)C1 [Linsitinib] (partner 1 µM) the relative viability ([1]; first compound 0.02 µM) was 0.575, the relative viability ([1]; first compound 0.2 µM) was 0.372 and the relative viability ([1]; first compound 0.6325 µM) was 0.465. For the same molecule, the relative viability ([1]; first compound 2 µM) was 0.411, the relative viability ([2]; first compound 0.02 µM) was 1.09 and the relative viability ([2]; first compound 0.2 µM) was 1.16. The relative viability ([2]; first compound 0.6325 µM) was 1.05, the relative viability ([2]; first compound 2 µM) was 0.891 and the relative viability ([3]; first compound 0.02 µM) was 1.08. For the same molecule, the relative viability ([3]; first compound 0.2 µM) was 0.995, the relative viability ([3]; first compound 0.6325 µM) was 1.27 and the relative viability ([3]; first compound 2 µM) was 0.876. The relative viability ([4]; first compound 0.02 µM) was 0.911, the relative viability ([4]; first compound 0.2 µM) was 0.84 and the relative viability ([4]; first compound 0.6325 µM) was 0.86. For the same molecule, the relative viability ([4]; first compound 2 µM) was 0.726, the relative viability ([5]; first compound 0.02 µM) was 0.813 and the relative viability ([5]; first compound 0.2 µM) was 0.51. For the same molecule, the relative viability ([5]; first compound 0.6325 µM) was 0.403, the relative viability ([5]; first compound 2 µM) was 0.279 and the relative viability ([6]; first compound 0.02 µM) was 0.971. It also gave a relative viability ([6]; first compound 0.6325 µM) of 0.689, a relative viability ([6]; first compound 2 µM) of 0.541 and a relative viability ([7]; first compound 0.02 µM) of 1.1. The relative viability ([7]; first compound 0.2 µM) was 1.03, the relative viability ([7]; first compound 0.6325 µM) was 1.07 and the relative viability ([7]; first compound 2 µM) was 1.07. The relative viability ([8]; first compound 0.02 µM) was 0.991, the relative viability ([8]; first compound 0.2 µM) was 0.914 and the relative viability ([8]; first compound 0.6325 µM) was 1.15. For the same molecule, the relative viability ([8]; first compound 2 µM) was 0.64, the relative viability ([9]; first compound 0.02 µM) was 1 and the relative viability ([9]; first compound 0.2 µM) was 0.707. It also gave a relative viability ([9]; first compound 0.6325 µM) of 0.95, a relative viability ([9]; first compound 2 µM) of 0.896 and a relative viability ([10]; first compound 0.02 µM) of 1.02. The relative viability ([10]; first compound 0.2 µM) was 0.731, the relative viability ([10]; first compound 0.6325 µM) was 1.35 and the relative viability ([10]; first compound 2 µM) was 1.01. For the same molecule, the relative viability ([11]; first compound 0.02 µM) was 0.846, the relative viability ([11]; first compound 0.2 µM) was 0.673 and the relative viability ([11]; first compound 0.6325 µM) was 0.699. The relative viability ([11]; first compound 2 µM) was 0.64, the relative viability ([12]; first compound 0.02 µM) was 0.729 and the relative viability ([12]; first compound 0.2 µM) was 0.51. The relative viability ([12]; first compound 0.6325 µM) was 0.823, the relative viability ([12]; first compound 2 µM) was 0.717 and the relative viability ([13]; first compound 0.02 µM) was 1.05. It also gave a relative viability ([13]; first compound 0.6325 µM) of 0.842, a relative viability ([13]; first compound 2 µM) of 0.767 and a relative viability ([14]; first compound 0.02 µM) of 0.908. For the same molecule, the relative viability ([14]; first compound 0.6325 µM) was 0.713, the relative viability ([14]; first compound 2 µM) was 0.751 and the relative viability ([15]; first compound 0.02 µM) was 0.74. The relative viability ([15]; first compound 0.2 µM) was 0.649, the relative viability ([15]; first compound 0.6325 µM) was 0.612 and the relative viability ([15]; first compound 2 µM) was 0.549. It also gave a relative viability ([16]; first compound 0.02 µM) of 1.04, a relative viability ([16]; first compound 0.2 µM) of 0.985 and a relative viability ([16]; first compound 0.6325 µM) of 0.981. It also gave a relative viability ([16]; first compound 2 µM) of 1.09, a relative viability ([17]; first compound 0.02 µM) of 0.813 and a relative viability ([17]; first compound 0.2 µM) of 0.775. The relative viability ([17]; first compound 0.6325 µM) was 0.642, the relative viability ([17]; first compound 2 µM) was 0.497 and the relative viability ([18]; first compound 0.02 µM) was 0.94. It also gave a relative viability ([18]; first compound 0.2 µM) of 0.885, a relative viability ([18]; first compound 0.6325 µM) of 0.838 and a relative viability ([18]; first compound 2 µM) of 0.98. For the same molecule, the relative viability ([19]; first compound 0.02 µM) was 0.284, the relative viability ([19]; first compound 0.2 µM) was 0.159 and the relative viability ([19]; first compound 0.6325 µM) was 0.26. For the same molecule, the relative viability ([19]; first compound 2 µM) was 0.176, the relative viability ([20]; first compound 0.02 µM) was 0.771 and the relative viability ([20]; first compound 0.2 µM) was 0.588. For the same molecule, the relative viability ([20]; first compound 0.6325 µM) was 0.542 and the relative viability ([20]; first compound 2 µM) was 0.366.
